Consider 1 molecule from patent US6727227B1, “Tetrapetide revealing geroprotective effect, pharmacological substance on its basis, and the method of its application” (Obschestvo S Ogranichennoi Otvetstven-Nostiju “Klinika …, priority 2002, dated 2004).

Residues, ends and D or L forms follow the SMILES beside them.

For data set [1], the system named is white outbred male mice. Kind of data set: Acute toxicity according to Kerber. Format: in vivo. As to the method:
The purpose of the study was to define tolerable toxic doses of the preparation, to estimate the stage and character of pathologic alterations in various organs and systems of the organism, and to identify the correlation between the toxic dose-related effect and the duration of the drug application.
The investigation was carried out on 66 white outbred male mice weighing 20 to 23 g, which were kept under standard regimen and fed upon standard rations in vivarium conditions. The animals were randomly divided into 6 equal groups of 11 mice in each. The animals were exposed to a single administration of the drug intramuscularly, 0.25 ml in doses 1 mg/kg, 2 mg/kg, 3 mg/kg, 4 mg/kg and 5 mg/kg (several thousand times exceeding the therapeutic dose recommended for clinical trial). Control animals were administered the same amount of sodium chloride.

In data set [2] the test system is catalase. In words: Catalase activity in 14-day old flies of HEM strain. Format: in vivo, Drosophila melanogaster of HEM strain. The note with it: 0.00001% of culture medium weight. An excerpt: L-Ala-L-Glu-L-Asp-Gly tetrapeptide (SEQ ID NO: 1) was applied in Drosophila melanogaster larvae of the 2nd age of HEM strain selected for a high ageing rate (20). HEM strain is characterised by the unique dynamics of embryonic mortality, which consists in an increased frequency of early embryonic lethal outcomes from 65% on the 1st day of egg-laying up to 95% on the 4th day, in a reduced average life span (29 days), and in a raised intensity of lipid peroxide oxidation.
L-Ala-L-Glu-L-Asp-Gly tetrapeptide (SEQ ID NO: 1) was added in proportion 0.00001% of the culture medium weight, which was an extremely low dose. The doses described in literature on the influence of various substances on Drosophila melanogaster usually ranged from 0.001 to 0.01%.
Biochemical parameters were studied on 14-day old flies. Among them the activity of catalase activity and the intensity of tissue chemoluminescence were analysed (21, 22, 23). Catalase is the basic enzyme of anti-oxidation defence. […] Luminol-dependent chemoluminescence, induced by hydrogen peroxide, reflects the stage of active oxygen forms in tissues. Thus, a decrease in the chemoluminescence intensity indicates an increase in the organism ability to resist oxidative stress.

Where [3] appears, read: single intramuscular administration, 1-5 mg/kg.

For `C[C@H](N)C(=O)N[C@@H](CCC(=O)O)C(=O)N[C@@H](CC(=O)O)C(=O)NCC(=O)O` [L-Ala-L-Glu-L-Asp-Gly tetrapeptide, L-alanyl-L-glutamyl-L-aspartyl-glycine] (H-AEDG-OH), the Acute toxic reactions entry in data set [1] (doses several thousand times exceeding the therapeutic one) is “does not induce acute toxic reactions”. In data set [1] (setting [3]), the “Alterations in general state, behaviour, locomotor activity, hair and skin integument, physiological discharges” value is “No alterations”; the “Deaths within 72 hours and in 14 days” value is on record as “none of the animals in either of the groups died”. Moreover, in data set [2] (females), the Catalase activity is listed as 98.8 ± 1.62 mmole H2O2/mg of protein per min. The Catalase activity in data set [2] (males) was 132.3 ± 3.68 mmole H2O2/mg of protein per min.
